In PubChem BioAssay AID328 (DTP/NCI, 2004):
Where “and” joins values, the source holds several entries; their conditions need not be identical. Identical values can stand only once. Inconclusive results and toxic doses are left out.

Tested on: BDF1 mice, P388 leukemia ip, median survival T/C
Experiment: NCI In Vivo Anticancer Drug Screen. Data for tumor model P388 Leukemia (intraperitoneal) in B6D2F1 (BDF1) mice
Details: endpoint: median survival time, higher = longer survival
In short: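 Transplantable tumour in mice; compound vs vehicle dosing; survival scored; ratio of treated to control reported.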

[1] = dose: 100.0 mg/kg/injection, schedule: Q04DX003 (ip), vehicle: saline
[2] = dose: 200.0 mg/kg/injection, schedule: Q04DX003 (ip), vehicle: saline
[3] = dose: 400.0 mg/kg/injection, schedule: Q04DX003 (ip), vehicle: saline
[4] = dose: 100.0 mg/kg/injection, schedule: Q04DX003 (ip), vehicle: saline sonified
[5] = dose: 25.0 mg/kg/injection, schedule: Q04DX003 (ip), vehicle: saline with Tween-80
[6] = dose: 50.0 mg/kg/injection, schedule: Q04DX003 (ip), vehicle: saline with Tween-80
[7] = dose: 100.0 mg/kg/injection, schedule: Q04DX003 (ip), vehicle: saline with Tween-80
[8] = dose: 200.0 mg/kg/injection, schedule: Q04DX003 (ip), vehicle: saline with Tween-80
[9] = dose: 400.0 mg/kg/injection, schedule: Q04DX003 (ip), vehicle: saline with Tween-80
[10] = dose: 100.0 mg/kg/injection, schedule: Q01DX009 (ip), vehicle: saline with Tween-80
[11] = dose: 200.0 mg/kg/injection, schedule: Q01DX009 (ip), vehicle: saline with Tween-80
[12] = dose: 400.0 mg/kg/injection, schedule: Q01DX009 (ip), vehicle: saline with Tween-80
[13] = dose: 25.0 mg/kg/injection, schedule: Q01DX009 (ip), vehicle: saline with Tween-80
[14] = dose: 50.0 mg/kg/injection, schedule: Q01DX009 (ip), vehicle: saline with Tween-80

Q: Which T/C (dose: 10.0 mg/kg/injection, schedule: Q01DX009 (ip), vehicle: saline with Tween-80) does the source give for `N#C[S-].N#C[S-].[NH-]CC[NH-].[Pt+4]` here?
A: 113 % of control

Q: And the T/C (dose: 10.0 mg/kg/injection, schedule: Q04DX003 (ip), vehicle: saline with Tween-80)?
A: 104 % of control

Q: What about the T/C (dose: 20.0 mg/kg/injection, schedule: Q04DX003 (ip), vehicle: saline with Tween-80) of the same molecule?
A: 100 % of control

Q: What about the T/C (dose: 26.4 mg/kg/injection, schedule: Q01DX009 (ip), vehicle: saline with Tween-80) of the same molecule?
A: 90 % of control

Q: What about the T/C (dose: 40.0 mg/kg/injection, schedule: Q01DX009 (ip), vehicle: saline with Tween-80) of the same molecule?
A: 90 % of control

Q: What about the T/C (dose: 40.0 mg/kg/injection, schedule: Q04DX003 (ip), vehicle: saline with Tween-80) of the same molecule?
A: 86 % of control

Q: And the T/C (dose: 60.0 mg/kg/injection, schedule: Q01DX009 (ip), vehicle: saline with Tween-80)?
A: 118 % of control

Q: Which results are given for `C=C1C(=O)O[C@@H]2/C=C(/C)[C@@]3(O)C=C[C@](C)(C[C@@H](OC(=O)/C(=C\C)COC(C)=O)[C@@H]12)O3`?
A: T/C (dose: 0.38 mg/kg/injection, schedule: Q01DX010 (ip), vehicle: carboxymethylcellulose (CMC)): 90 % of control; T/C (dose: 0.75 mg/kg/injection, schedule: Q01DX010 (ip), vehicle: carboxymethylcellulose (CMC)): 95 % of control; T/C (dose: 1.0 mg/kg/injection, schedule: Q01DX009 (ip), vehicle: carboxymethylcellulose (CMC)): 103 % of control; T/C (dose: 1.5 mg/kg/injection, schedule: Q01DX010 (ip), vehicle: carboxymethylcellulose (CMC)): 109 % of control; T/C (dose: 2.5 mg/kg/injection, schedule: Q01DX010 (ip), vehicle: saline): 118 % of control; T/C (dose: 3.0 mg/kg/injection, schedule: Q01DX010 (ip), vehicle: carboxymethylcellulose (CMC)): 104 % of control; T/C (dose: 5.0 mg/kg/injection, schedule: Q01DX010 (ip), vehicle: carboxymethylcellulose (CMC)): 157 % of control; T/C (dose: 5.0 mg/kg/injection, schedule: Q01DX010 (ip), vehicle: saline): 122 % of control; T/C (dose: 6.0 mg/kg/injection, schedule: Q01DX010 (ip), vehicle: carboxymethylcellulose (CMC)): 163 % of control; T/C (dose: 8.0 mg/kg/injection, schedule: Q01DX009 (ip), vehicle: carboxymethylcellulose (CMC)): 117 % of control; T/C (dose: 8.0 mg/kg/injection, schedule: Q01DX010 (ip), vehicle: carboxymethylcellulose (CMC)): 157 % of control; T/C (dose: 12.0 mg/kg/injection, schedule: Q01DX010 (ip), vehicle: carboxymethylcellulose (CMC)): 118 % of control; T/C (dose: 18.0 mg/kg/injection, schedule: Q01DX010 (ip), vehicle: saline): 109 % of control; T/C (dose: 27.0 mg/kg/injection, schedule: Q01DX010 (ip), vehicle: carboxymethylcellulose (CMC)): 105 % of control; T/C (dose: 40.0 mg/kg/injection, schedule: Q01DX010 (ip), vehicle: saline): 100 % of control

Q: Which results are given for `N=Cc1c(O)[nH]c(=O)[nH]c1=O`?
A: T/C (dose: 100.0 mg/kg/injection, schedule: Q01DX009 (ip), vehicle: saline): 109 % of control; T/C [1]: 92 % of control; T/C (dose: 200.0 mg/kg/injection, schedule: Q01DX009 (ip), vehicle: saline): 109 % of control; T/C [2]: 107 % of control; T/C (dose: 400.0 mg/kg/injection, schedule: Q01DX009 (ip), vehicle: saline): 118 % of control; T/C [3]: 92 % of control

Q: For `[O-][n+]1onc2c(-c3ccccc3)nnc(-c3ccccc3)c21`, which T/C [4] is on record?
A: 104 % of control

Q: And the T/C (dose: 200.0 mg/kg/injection, schedule: Q04DX003 (ip), vehicle: saline sonified)?
A: 90 % of control

Q: What about the T/C (dose: 400.0 mg/kg/injection, schedule: Q04DX003 (ip), vehicle: saline sonified) of the same molecule?
A: 100 % of control

Q: For `COc1cc(C=O)cc(I)c1O`, which T/C (dose: 12.5 mg/kg/injection, schedule: Q01DX009 (ip), vehicle: saline sonified) is on record?
A: 105 % of control

Q: And the T/C (dose: 12.5 mg/kg/injection, schedule: Q04DX003 (ip), vehicle: saline with Tween-80)?
A: 86 % of control

Q: What about the T/C (dose: 25.0 mg/kg/injection, schedule: Q01DX009 (ip), vehicle: saline sonified) of the same molecule?
A: 94 % of control

Q: And the T/C [5]?
A: 90 % of control

Q: And the T/C (dose: 50.0 mg/kg/injection, schedule: Q01DX009 (ip), vehicle: saline sonified)?
A: 100 % of control

Q: And the T/C [6]?
A: 100 % of control

Q: With `O=C1N=C2C=CC=CN2C(=O)C1Cc1ccccc1` (stereo not drawn) as the molecule, how does the T/C [7] read?
A: 96 % of control

Q: And the T/C [8]?
A: 100 % of control

Q: And the T/C [9]?
A: 104 % of control

Q: What does the source list for `CC1=C(C)CC2C(=O)C(C(O)CC(C)C)=CC(=O)C2C1` (stereo not drawn)?
A: T/C [7]: 100 % of control; T/C [8]: 113 % of control; T/C [9]: 93 % of control

Q: Which T/C (dose: 100.0 mg/kg/injection, schedule: Q04DX002 (ip), vehicle: saline with Tween-80) does the source give for `CCN1c2ccccc2CC(CCN(C(C)C)C(C)C)(C(N)=O)c2ccccc21` (stereo not drawn) here?
A: 108 % of control

Q: For `O=C(O)c1ccc(NC(=O)C(F)(F)F)cc1`, which T/C (dose: 25.0 mg/kg/injection, schedule: Q04DX003 (ip), vehicle: saline sonified) is on record?
A: 86 % of control

Q: And the T/C [4]?
A: 95 % of control

Q: With `CN(C)CCSC1=CC(=O)c2ccccc2C1=O` as the molecule, how does the T/C (dose: 0.19 mg/kg/injection, schedule: Q01DX009 (ip), vehicle: water) read?
A: 116 % of control

Q: What about the T/C (dose: 0.19 mg/kg/injection, schedule: Q04DX003 (ip), vehicle: water) of the same molecule?
A: 95 % of control

Q: And the T/C (dose: 0.39 mg/kg/injection, schedule: Q01DX009 (ip), vehicle: water)?
A: 109 % of control

Q: What about the T/C (dose: 0.39 mg/kg/injection, schedule: Q04DX003 (ip), vehicle: water) of the same molecule?
A: 105 % of control

Q: What about the T/C (dose: 0.78 mg/kg/injection, schedule: Q01DX009 (ip), vehicle: water) of the same molecule?
A: 110 % of control

Q: What about the T/C (dose: 0.78 mg/kg/injection, schedule: Q04DX003 (ip), vehicle: water) of the same molecule?
A: 104 % of control

Q: What about the T/C (dose: 1.56 mg/kg/injection, schedule: Q01DX009 (ip), vehicle: water) of the same molecule?
A: 109 % of control

Q: And the T/C (dose: 1.56 mg/kg/injection, schedule: Q04DX003 (ip), vehicle: water)?
A: 106 % of control

Q: What about the T/C (dose: 3.12 mg/kg/injection, schedule: Q04DX003 (ip), vehicle: water) of the same molecule?
A: 95 % of control

Q: How did the T/C (dose: 50.0 mg/kg/injection, schedule: Q01DX005 (ip), vehicle: saline with Tween-80) turn out when `CC12CCC(C=C1N1CCCCC1)C(C)(C)O2` (stereo not drawn) was run?
A: 101 % of control

Q: What about the T/C (dose: 100.0 mg/kg/injection, schedule: Q01DX005 (ip), vehicle: saline with Tween-80) of the same molecule?
A: 101 % of control

Q: What about the T/C (dose: 200.0 mg/kg/injection, schedule: Q01DX005 (ip), vehicle: saline with Tween-80) of the same molecule?
A: 106 % of control

Q: `CC(C(=O)O)c1ccc2c(c1)[nH]c1ccc(Cl)cc12` (stereo not drawn) was tested. Which T/C [10] did it give?
A: 89 % of control

Q: What about the T/C [11] of the same molecule?
A: 91 % of control

Q: For `CCOC(=O)c1ccc(NCC#N)cc1`, which T/C [10] is on record?
A: 90 % of control

Q: What about the T/C [11] of the same molecule?
A: 100 % of control

Q: And the T/C [12]?
A: 100 % of control

Q: For `O=C(NC(=O)c1c(F)cccc1F)Nc1ncc(Br)cc1Br`, which T/C [13] is on record?
A: 90 % of control

Q: What about the T/C [14] of the same molecule?
A: 97 % of control

Q: And the T/C [10]?
A: 96 % of control

Q: Which T/C [10] does the source give for `Cc1ccc(CCCCCCCCCCCC(=O)O)cc1` here?
A: 96 % of control

Q: And the T/C [7]?
A: 95 % of control

Q: What about the T/C [11] of the same molecule?
A: 92 % of control

Q: What about the T/C [8] of the same molecule?
A: 100 % of control

Q: And the T/C [12]?
A: 107 % of control

Q: And the T/C [9]?
A: 110 % of control

Q: Which results are given for `Cc1cc2c3ccccc3ncn2n1`?
A: T/C (dose: 100.0 mg/kg/injection, schedule: Q01DX001 (ip), vehicle: saline): 100 % of control; T/C (dose: 100.0 mg/kg/injection, schedule: Q01DX009 (ip), vehicle: Klucel (hydroxypropylcellulose) (HPC)): 100 % of control; T/C [1]: 100 % of control; T/C (dose: 200.0 mg/kg/injection, schedule: Q01DX001 (ip), vehicle: saline): 108 % of control; T/C (dose: 200.0 mg/kg/injection, schedule: Q01DX009 (ip), vehicle: Klucel (hydroxypropylcellulose) (HPC)): 108 % of control; T/C [2]: 100 % of control; T/C [3]: 100 % of control

Q: What does the source list for `O=C(Cn1ccc(=O)[nH]c1=O)c1ccc([N+](=O)[O-])o1`?
A: T/C (dose: 25.0 mg/kg/injection, schedule: Q04DX003 (ip), vehicle: saline): 109 % of control; T/C (dose: 50.0 mg/kg/injection, schedule: Q04DX003 (ip), vehicle: saline): 100 % of control

Q: How did the T/C (dose: 12.5 mg/kg/injection, schedule: Q01DX009 (ip), vehicle: saline with Tween-80) turn out when `O=C(Nc1cccc2ccccc12)C(F)(F)F` was run?
A: 109 % of control

Q: What about the T/C [13] of the same molecule?
A: 104 % of control

Q: And the T/C [5]?
A: 91 % of control

Q: What about the T/C [14] of the same molecule?
A: 100 % of control

Q: And the T/C [6]?
A: 99 % of control

Q: And the T/C [10]?
A: 118 % of control

Q: What about the T/C [7] of the same molecule?
A: 90 % of control and 103 % of control

Q: How did the T/C [10] turn out when `c1ccc(OCC2CO2)cc1` (stereo not drawn) was run?
A: 108 % of control and 118 % of control

Q: And the T/C [7]?
A: 110 % of control

Q: And the T/C [11]?
A: 108 % of control and 112 % of control

Q: What about the T/C [8] of the same molecule?
A: 115 % of control

Q: And the T/C [9]?
A: 110 % of control
